Experimental data taken from the kinase profiling compilation of Christmann-Franck et al. (2016).

Experiments:
Test in all cases: radiometric filter-binding kinase assay
[1] = molecular target: PDPK1 (human) (UniProt O15530); conditions: compound 1.0 µM
[2] = molecular target: SRC (human) (UniProt P12931)
[3] = molecular target: ZAP70 (human) (UniProt P43403)
[4] = molecular target: PIM1 (human) (UniProt P11309)
[5] = molecular target: TAOK1 (human) (UniProt Q7L7X3)
[6] = molecular target: AURKA (human) (UniProt O14965)
AURKA (human), sequence (O14965 whole entry, looked up): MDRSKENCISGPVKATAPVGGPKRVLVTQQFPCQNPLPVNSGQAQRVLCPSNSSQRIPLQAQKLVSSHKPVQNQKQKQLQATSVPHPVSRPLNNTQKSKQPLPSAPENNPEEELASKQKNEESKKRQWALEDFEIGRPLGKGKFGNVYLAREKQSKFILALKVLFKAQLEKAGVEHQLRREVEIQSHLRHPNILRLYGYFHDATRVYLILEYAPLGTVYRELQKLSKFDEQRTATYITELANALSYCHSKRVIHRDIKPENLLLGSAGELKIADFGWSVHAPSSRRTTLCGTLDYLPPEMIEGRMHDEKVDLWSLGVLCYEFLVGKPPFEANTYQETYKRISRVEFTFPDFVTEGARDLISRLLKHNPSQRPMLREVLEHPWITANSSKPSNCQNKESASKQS

[7] = molecular target: MAPKAPK2 (human) (UniProt P49137)
[8] = molecular target: STK3 (human) (UniProt Q13188)
[9] = molecular target: JAK2 JH1 JH2 (human) (UniProt O60674); conditions: compound 1.0 µM
[10] = molecular target: MAPK8 (human) (UniProt P45983)
MAPK8 (human), sequence (P45983 whole entry, looked up): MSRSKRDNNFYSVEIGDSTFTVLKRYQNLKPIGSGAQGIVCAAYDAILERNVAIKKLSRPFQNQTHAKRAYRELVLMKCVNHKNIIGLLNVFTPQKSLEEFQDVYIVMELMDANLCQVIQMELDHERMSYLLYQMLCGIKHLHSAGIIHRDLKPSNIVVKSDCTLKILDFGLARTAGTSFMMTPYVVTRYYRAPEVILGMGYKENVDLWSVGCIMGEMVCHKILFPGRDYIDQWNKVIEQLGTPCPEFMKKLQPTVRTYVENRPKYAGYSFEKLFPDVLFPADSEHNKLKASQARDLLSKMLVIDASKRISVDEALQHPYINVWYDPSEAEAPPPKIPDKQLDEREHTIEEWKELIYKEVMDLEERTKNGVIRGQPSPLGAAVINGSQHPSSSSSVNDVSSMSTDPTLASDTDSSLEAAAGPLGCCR

[11] = molecular target: MINK1 (human) (UniProt Q8N4C8)
[12] = molecular target: CSNK1D (human) (UniProt P48730)
[13] = molecular target: MKNK1 (human) (UniProt Q9BUB5)
MKNK1 (human), sequence (Q9BUB5 whole entry, looked up): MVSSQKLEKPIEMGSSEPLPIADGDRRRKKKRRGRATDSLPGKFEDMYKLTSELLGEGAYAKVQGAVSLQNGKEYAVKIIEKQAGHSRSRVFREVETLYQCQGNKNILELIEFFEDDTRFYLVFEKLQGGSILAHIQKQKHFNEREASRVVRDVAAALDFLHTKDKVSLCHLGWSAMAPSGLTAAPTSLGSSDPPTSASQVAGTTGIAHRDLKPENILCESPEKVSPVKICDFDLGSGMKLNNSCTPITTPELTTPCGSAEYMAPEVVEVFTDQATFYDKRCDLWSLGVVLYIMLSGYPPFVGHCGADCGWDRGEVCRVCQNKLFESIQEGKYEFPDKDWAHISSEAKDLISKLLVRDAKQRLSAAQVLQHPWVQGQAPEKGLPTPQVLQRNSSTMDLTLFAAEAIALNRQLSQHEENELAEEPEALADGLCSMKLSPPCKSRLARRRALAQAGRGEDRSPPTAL

[14] = system: SGK1 (human), O00141 [S422D]
[15] = molecular target: PHKG1 (human) (UniProt Q16816)
[16] = molecular target: CDK9 CCNT1 (human) (UniProt P50750+O60563)
[17] = molecular target: EPHB1 (human) (UniProt P54762)
[18] = molecular target: CHEK2 (human) (UniProt O96017)
[19] = molecular target: MAP3K9 (human) (UniProt P80192)
[20] = molecular target: SYK (human) (UniProt P43405)
[21] = molecular target: RIPK2 (human) (UniProt O43353); conditions: compound 1.0 µM
[22] = molecular target: SIK2 (human) (UniProt Q9H0K1)
[23] = molecular target: FGFR1 (human) (UniProt P11362)
[24] = molecular target: MAP4K5 (human) (UniProt Q9Y4K4)
[25] = molecular target: MAP3K5 (human) (UniProt Q99683); conditions: compound 10.0 µM
[26] = molecular target: PDGFRA (human) (UniProt P16234)
PDGFRA (human), sequence (P16234 whole entry, looked up): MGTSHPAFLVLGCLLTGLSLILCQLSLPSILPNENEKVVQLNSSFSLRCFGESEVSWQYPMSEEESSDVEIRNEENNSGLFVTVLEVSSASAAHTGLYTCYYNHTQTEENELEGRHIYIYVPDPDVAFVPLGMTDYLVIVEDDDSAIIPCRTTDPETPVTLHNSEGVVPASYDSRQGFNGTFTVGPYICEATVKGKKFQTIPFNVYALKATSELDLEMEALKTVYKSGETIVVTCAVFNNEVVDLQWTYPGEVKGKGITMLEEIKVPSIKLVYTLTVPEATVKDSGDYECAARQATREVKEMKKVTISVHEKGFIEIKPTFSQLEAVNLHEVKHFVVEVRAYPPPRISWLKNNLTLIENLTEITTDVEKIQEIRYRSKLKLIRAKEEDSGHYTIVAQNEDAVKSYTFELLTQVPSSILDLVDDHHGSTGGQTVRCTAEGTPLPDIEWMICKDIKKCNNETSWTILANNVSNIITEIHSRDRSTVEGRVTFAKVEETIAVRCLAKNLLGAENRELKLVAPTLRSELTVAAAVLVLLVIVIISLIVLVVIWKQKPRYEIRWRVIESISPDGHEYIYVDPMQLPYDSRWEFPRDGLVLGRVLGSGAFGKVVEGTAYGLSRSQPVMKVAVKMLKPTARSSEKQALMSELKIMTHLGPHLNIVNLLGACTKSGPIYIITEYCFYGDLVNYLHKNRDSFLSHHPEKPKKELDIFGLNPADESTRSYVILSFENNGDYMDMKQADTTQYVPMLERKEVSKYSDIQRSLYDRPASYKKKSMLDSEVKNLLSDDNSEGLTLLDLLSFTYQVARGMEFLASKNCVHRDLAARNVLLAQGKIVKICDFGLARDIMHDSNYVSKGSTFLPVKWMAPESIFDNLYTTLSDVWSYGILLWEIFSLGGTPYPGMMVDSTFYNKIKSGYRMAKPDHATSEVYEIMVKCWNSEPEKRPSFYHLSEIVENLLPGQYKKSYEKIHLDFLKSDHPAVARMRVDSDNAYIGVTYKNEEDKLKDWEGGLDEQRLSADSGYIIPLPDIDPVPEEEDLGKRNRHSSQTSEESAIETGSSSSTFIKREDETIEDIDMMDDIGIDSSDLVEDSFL

[27] = system: AKT1 (human), P31749 [S473D]
[28] = molecular target: MARK4 (human) (UniProt Q96L34)
[29] = molecular target: BTK (human) (UniProt Q06187)
[30] = molecular target: BRSK1 (human) (UniProt Q8TDC3)
BRSK1 (human), sequence (Q8TDC3 whole entry, looked up): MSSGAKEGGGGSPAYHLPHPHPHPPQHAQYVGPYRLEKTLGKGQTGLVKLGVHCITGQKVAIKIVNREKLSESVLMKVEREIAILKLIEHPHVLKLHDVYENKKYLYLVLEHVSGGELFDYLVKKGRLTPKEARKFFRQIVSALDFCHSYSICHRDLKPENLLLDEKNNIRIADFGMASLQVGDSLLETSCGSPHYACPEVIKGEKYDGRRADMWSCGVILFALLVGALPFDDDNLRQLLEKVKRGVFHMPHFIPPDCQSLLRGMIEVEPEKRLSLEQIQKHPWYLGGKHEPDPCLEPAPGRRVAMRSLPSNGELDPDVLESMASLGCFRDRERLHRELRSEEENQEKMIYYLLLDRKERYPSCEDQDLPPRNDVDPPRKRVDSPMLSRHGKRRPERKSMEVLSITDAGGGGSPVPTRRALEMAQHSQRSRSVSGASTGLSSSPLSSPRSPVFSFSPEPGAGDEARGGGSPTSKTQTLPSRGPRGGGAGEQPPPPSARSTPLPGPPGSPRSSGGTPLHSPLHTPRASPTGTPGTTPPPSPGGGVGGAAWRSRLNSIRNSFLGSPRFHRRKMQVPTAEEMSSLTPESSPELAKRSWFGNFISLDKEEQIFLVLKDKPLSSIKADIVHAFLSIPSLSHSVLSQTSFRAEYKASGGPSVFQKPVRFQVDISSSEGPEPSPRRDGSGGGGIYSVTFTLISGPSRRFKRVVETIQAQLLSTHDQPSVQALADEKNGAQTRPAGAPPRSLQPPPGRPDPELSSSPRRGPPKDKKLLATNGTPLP

[31] = molecular target: MAPKAPK3 (human) (UniProt Q16644)
[32] = molecular target: STK16 (human) (UniProt O75716)
STK16 (human), sequence (O75716 whole entry, looked up): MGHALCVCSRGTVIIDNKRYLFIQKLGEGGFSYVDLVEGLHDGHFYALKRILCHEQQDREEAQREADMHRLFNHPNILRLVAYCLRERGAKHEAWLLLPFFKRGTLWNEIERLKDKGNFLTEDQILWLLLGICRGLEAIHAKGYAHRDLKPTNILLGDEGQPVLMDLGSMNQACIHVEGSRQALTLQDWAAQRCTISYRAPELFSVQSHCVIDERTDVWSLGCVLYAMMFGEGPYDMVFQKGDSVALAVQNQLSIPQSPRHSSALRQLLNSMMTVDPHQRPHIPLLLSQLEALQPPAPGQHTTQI

[33] = molecular target: PAK4 (human) (UniProt O96013)

ZAP70 (human), sequence (P43403 whole entry, looked up): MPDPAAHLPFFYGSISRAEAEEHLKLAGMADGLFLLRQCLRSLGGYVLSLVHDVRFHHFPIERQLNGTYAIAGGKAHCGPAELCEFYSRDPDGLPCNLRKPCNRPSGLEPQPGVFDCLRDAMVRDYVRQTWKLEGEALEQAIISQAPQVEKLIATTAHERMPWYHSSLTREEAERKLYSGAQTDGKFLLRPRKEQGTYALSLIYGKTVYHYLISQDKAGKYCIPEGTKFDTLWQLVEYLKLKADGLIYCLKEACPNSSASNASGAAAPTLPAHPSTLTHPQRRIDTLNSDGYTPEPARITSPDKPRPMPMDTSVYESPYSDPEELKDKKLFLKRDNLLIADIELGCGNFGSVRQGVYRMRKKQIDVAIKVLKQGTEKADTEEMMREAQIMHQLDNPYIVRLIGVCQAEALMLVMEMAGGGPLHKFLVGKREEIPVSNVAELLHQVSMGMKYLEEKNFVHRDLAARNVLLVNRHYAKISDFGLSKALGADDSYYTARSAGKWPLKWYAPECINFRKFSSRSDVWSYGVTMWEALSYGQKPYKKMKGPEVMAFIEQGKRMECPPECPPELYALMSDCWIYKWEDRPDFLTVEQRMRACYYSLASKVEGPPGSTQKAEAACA
SRC (human), sequence (P12931 whole entry, looked up): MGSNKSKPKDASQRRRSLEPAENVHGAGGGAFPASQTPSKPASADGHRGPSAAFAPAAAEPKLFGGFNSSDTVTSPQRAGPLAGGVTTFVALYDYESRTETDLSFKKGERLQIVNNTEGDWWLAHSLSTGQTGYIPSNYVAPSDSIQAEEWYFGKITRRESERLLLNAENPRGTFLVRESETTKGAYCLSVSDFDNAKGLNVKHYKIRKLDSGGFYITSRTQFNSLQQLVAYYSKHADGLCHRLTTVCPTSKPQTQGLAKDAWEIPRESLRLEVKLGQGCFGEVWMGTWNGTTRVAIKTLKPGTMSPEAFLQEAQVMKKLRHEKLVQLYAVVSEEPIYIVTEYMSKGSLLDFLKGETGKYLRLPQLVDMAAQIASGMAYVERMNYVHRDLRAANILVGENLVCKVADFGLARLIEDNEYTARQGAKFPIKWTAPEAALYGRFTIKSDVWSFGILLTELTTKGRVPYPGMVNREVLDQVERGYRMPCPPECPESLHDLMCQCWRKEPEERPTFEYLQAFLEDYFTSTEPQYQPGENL
PIM1 (human), sequence (P11309 whole entry, looked up): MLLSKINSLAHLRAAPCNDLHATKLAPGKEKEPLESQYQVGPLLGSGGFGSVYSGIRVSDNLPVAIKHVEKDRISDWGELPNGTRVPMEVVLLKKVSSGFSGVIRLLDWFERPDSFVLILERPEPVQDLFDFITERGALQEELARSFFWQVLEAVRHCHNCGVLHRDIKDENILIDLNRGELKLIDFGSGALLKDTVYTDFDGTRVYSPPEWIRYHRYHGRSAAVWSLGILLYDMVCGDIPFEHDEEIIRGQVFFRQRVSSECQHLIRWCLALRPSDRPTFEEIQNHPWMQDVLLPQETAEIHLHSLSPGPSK

Structure (SMILES): CNc1nc(Nc2ccc(C(=O)N3CCOCC3)cc2OC)ncc1Cl
- residual activity [1]: 102%
- residual activity ([2]; compound 1.0 µM): 84%
- residual activity ([2]; compound 10.0 µM): 79%
- residual activity ([3]; compound 1.0 µM): 97%
- residual activity ([3]; compound 10.0 µM): 81%
- residual activity ([4]; compound 1.0 µM): 96%
- residual activity ([4]; compound 10.0 µM): 99%
- residual activity ([5]; compound 1.0 µM): 81%
- residual activity ([5]; compound 10.0 µM): 93%
- residual activity ([6]; compound 1.0 µM): 56%
- residual activity ([6]; compound 10.0 µM): 45%
- residual activity ([7]; compound 1.0 µM): 88%
- residual activity ([7]; compound 10.0 µM): 102%
- residual activity ([8]; compound 1.0 µM): 85%
- residual activity ([8]; compound 10.0 µM): 73%
- residual activity [9]: 83%
- residual activity ([10]; compound 1.0 µM): 89%
- residual activity ([10]; compound 10.0 µM): 37%
- residual activity ([11]; compound 1.0 µM): 86%
- residual activity ([11]; compound 10.0 µM): 96%
- residual activity ([12]; compound 1.0 µM): 44%
- residual activity ([12]; compound 10.0 µM): 89%
- residual activity ([13]; compound 1.0 µM): 71%
- residual activity ([13]; compound 10.0 µM): 44%
- residual activity ([14]; compound 1.0 µM): 94%
- residual activity ([14]; compound 10.0 µM): 91%
- residual activity ([15]; compound 1.0 µM): 68%
- residual activity ([15]; compound 10.0 µM): 23%
- residual activity ([16]; compound 1.0 µM): 89%
- residual activity ([16]; compound 10.0 µM): 83%
- residual activity ([17]; compound 1.0 µM): 115%
- residual activity ([17]; compound 10.0 µM): 86%
- residual activity ([18]; compound 1.0 µM): 52%
- residual activity ([18]; compound 10.0 µM): 96%
- residual activity ([19]; compound 1.0 µM): 38%
- residual activity ([19]; compound 10.0 µM): 18%
- residual activity ([20]; compound 1.0 µM): 68%
- residual activity ([20]; compound 10.0 µM): 85%
- residual activity [21]: 79%
- residual activity ([22]; compound 1.0 µM): 49%
- residual activity ([22]; compound 10.0 µM): 47%
- residual activity ([23]; compound 1.0 µM): 89%
- residual activity ([23]; compound 10.0 µM): 86%
- residual activity ([24]; compound 1.0 µM): 83%
- residual activity ([24]; compound 10.0 µM): 82%
- residual activity [25]: 54%
- residual activity ([26]; compound 1.0 µM): 79%
- residual activity ([26]; compound 10.0 µM): 56%
- residual activity ([27]; compound 1.0 µM): 53%
- residual activity ([27]; compound 10.0 µM): 85%
- residual activity ([28]; compound 1.0 µM): 82%
- residual activity ([28]; compound 10.0 µM): 72%
- residual activity ([29]; compound 1.0 µM): 83%
- residual activity ([29]; compound 10.0 µM): 88%
- residual activity ([30]; compound 1.0 µM): 59%
- residual activity ([30]; compound 10.0 µM): 78%
- residual activity ([31]; compound 1.0 µM): 120%
- residual activity ([31]; compound 10.0 µM): 81%
- residual activity ([32]; compound 1.0 µM): 100%
- residual activity ([32]; compound 10.0 µM): 97%
- residual activity ([33]; compound 1.0 µM): 87%
- residual activity ([33]; compound 10.0 µM): 84%
